The target in the test is T1, BTK-WT (Homo sapiens, UniProt Q06187).
T1 construct: purified from insect cells as a full-length construct containing an N-terminal 6X-His tag; His6 (N); made in house; host or cells: insect cells (baculovirus Sf21 in Method B)
T1 sequence (Q06187 whole entry): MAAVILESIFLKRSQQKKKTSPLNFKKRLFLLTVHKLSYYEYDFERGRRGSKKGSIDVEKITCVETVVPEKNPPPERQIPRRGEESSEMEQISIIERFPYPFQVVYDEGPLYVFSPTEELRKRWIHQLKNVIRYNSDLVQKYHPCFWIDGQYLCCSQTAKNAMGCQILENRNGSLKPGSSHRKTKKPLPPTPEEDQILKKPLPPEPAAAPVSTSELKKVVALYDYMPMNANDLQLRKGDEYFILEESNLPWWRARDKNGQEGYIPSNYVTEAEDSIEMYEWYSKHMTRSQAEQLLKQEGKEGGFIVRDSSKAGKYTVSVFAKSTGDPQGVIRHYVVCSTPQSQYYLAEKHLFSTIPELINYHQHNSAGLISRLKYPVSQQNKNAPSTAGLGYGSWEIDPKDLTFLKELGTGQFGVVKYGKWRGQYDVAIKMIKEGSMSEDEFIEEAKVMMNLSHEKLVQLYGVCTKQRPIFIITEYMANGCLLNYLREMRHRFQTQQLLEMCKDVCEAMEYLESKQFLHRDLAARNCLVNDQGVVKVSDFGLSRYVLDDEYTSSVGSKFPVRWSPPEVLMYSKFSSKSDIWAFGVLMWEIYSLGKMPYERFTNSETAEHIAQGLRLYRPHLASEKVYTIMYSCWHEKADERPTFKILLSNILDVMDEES
The experiment in a line: Btk in vitro inhibitory activity (one of Method A TR-FRET, Method B electrophoretic mobility shift, Method C radiometric filter binding). It counts as biochemical. Conditions: D-compounds panel data; read-out: IC50 BTK-WT. (In EMSA bound probe runs differently from free probe, usually more slowly.)
By IC50 is commonly meant the point on the concentration scale where inhibition reaches its midpoint. In the case of `C[C@@H]1[C@H](NC(=O)N(C)C)CCCN1c1cnc(C(N)=O)c(Nc2ccc(N3CCN(C)CC3)cn2)n1` [Example D-180, 5-[(2R,3R)-3-[(dimethylcarbamoyl)amino]-2-methylpiperidin-1-yl]-3-{[5-(4-methylpiperazin-1-yl)pyridin-2-yl]amino}pyrazine-2-carboxamide], the IC50 lay within 100 to 1000 nM. For `COc1cc(C(=O)N[C@@H]2CCCN(c3cnc(C(N)=O)c(Nc4cnn(C)c4)n3)[C@@H]2C)ccc1C1CC1` [Example D-231, 5-[(2R,3R)-3-(4-cyclopropyl-3-methoxybenzamido)-2-methylpiperidin-1-yl]-3-[(1-methyl-1H-pyrazol-4-yl)amino]pyrazine-2-carboxamide], the IC50 is no more than 10 nM. The value for `Cn1cc(Nc2nc(N3CC(NC(=O)c4ccc(C5CC5)cc4)CC(F)(F)C3)cnc2C(N)=O)cn1` (stereo in doubt) [Example D-190, 5-[(5S)-5-(4-cyclopropylbenzamido)-3,3-difluoropiperidin-1-yl]-3-[(1-methyl-1H-pyrazol-4-yl)amino]pyrazine-2-carboxamide] was no more than 10 nM; that for `CN1CCN(c2ccc(Nc3nc(N4CCC[C@@H](n5ccc6cc(C7CC7)ccc6c5=O)C4)cnc3C(N)=O)nc2)CC1` [Example D-179, 5-[(3R)-3-(6-cyclopropyl-1-oxo-1,2-dihydroisoquinolin-2-yl)piperidin-1-yl]-3-{[5-(4-methylpiperazin-1-yl)pyridin-2-yl]amino}pyrazine-2-carboxamide] was 100 to 1000 nM. Regarding `C[C@@H]1[C@H](NC(=O)c2ccc(N(C)C)cc2)CCCN1c1cnc(C(N)=O)c(Nc2ccc(C3(C)CCN(C4CCCC4)CC3)cc2)n1` [Example D-183, 3-{[4-(1-cyclopentyl-4-methylpiperidin-4-yl)phenyl]amino}-5-[(2R,3R)-3-[4-(dimethylamino)benzamido]-2-methylpiperidin-1-yl]pyrazine-2-carboxamide], the IC50 was no more than 10 nM. The value for `Cn1cc(Nc2nc(N3CCC[C@@H](NC(=O)c4ccc(C5CC5)cc4)C3)cnc2C(N)=O)cn1` [Example D-191, 5-[(3R)-3-(4-cyclopropylbenzamido)piperidin-1-yl]-3-[(1-methyl-1H-pyrazol-4-yl)amino]pyrazine-2-carboxamide] was 10 to 100 nM; that for `Cc1cc(Nc2cc(N3CCC[C@@H](NC(=O)N(C)C)[C@H]3C)cnc2C(N)=O)sn1` [Example D-175, 5-[(2R,3R)-3-[(dimethylcarbamoyl)amino]-2-methylpiperidin-1-yl]-3-[(3-methyl-1,2-thiazol-5-yl)amino]pyridine-2-carboxamide] was 10 to 100 nM. The same measure for `C[C@@H]1[C@H](NC(=O)c2ccc(SC(F)(F)F)cc2)CCCN1c1cnc(C(N)=O)c(Nc2cnn(C)c2)n1` [Example D-241, 3-[(1-methyl-1H-pyrazol-4-yl)amino]-5-[(2R,3R)-2-methyl-3-{4-[(trifluoromethyl)sulfanyl]benzamido}piperidin-1-yl]pyrazine-2-carboxamide]: no more than 10 nM. With `C[C@@H]1[C@H](NC(=O)c2ccc(S(F)(F)(F)(F)F)cc2)CCCN1c1cnc(C(N)=O)c(Nc2cnn(C)c2)n1` [Example D-230, 3-[(1-methyl-1H-pyrazol-4-yl)amino]-5-[(2R,3R)-2-methyl-3-[4-(pentafluoro-λ^6-sulfanyl)benzamido]piperidin-1-yl]pyrazine-2-carboxamide], the IC50 is no more than 10 nM.

In the case of `C[C@@H]1[C@H](NC(=O)c2ccc(SC(F)(F)F)cc2)CCCN1c1cnc(C(N)=O)c(Nc2ccc(N3CCN(C)CC3)cc2)n1` [Example D-233, 5-[(2R,3R)-2-methyl-3-{4-[(trifluoromethyl)sulfanyl]benzamido}piperidin-1-yl]-3-{[4-(4-methylpiperazin-1-yl)phenyl]amino}pyrazine-2-carboxamide], the IC50 was no more than 10 nM. The same measure for `C[C@@H]1[C@H](NC(=O)c2ccc(C3CC3)cc2F)CCCN1c1cnc(C(N)=O)c(Nc2cc(CN3CCOCC3)ns2)n1` [Example D-173, 5-[(2R,3R)-3-(4-cyclopropyl-2-fluorobenzamido)-2-methylpiperidin-1-yl]-3-{[3-(morpholin-4-ylmethyl)-1,2-thiazol-5-yl]amino}pyrazine-2-carboxamide]: no more than 10 nM; for `Cn1cc(Nc2nc(N3CCC(F)(F)[C@H](NC(=O)c4ccc(C5CC5)cc4)C3)cnc2C(N)=O)cn1` [Example D-192, 5-[(3R)-3-(4-cyclopropylbenzamido)-4,4-difluoropiperidin-1-yl]-3-[(1-methyl-1H-pyrazol-4-yl)amino]pyrazine-2-carboxamide]: 1000 to 10000 nM. Take `C[C@@H]1[C@H](NC(=O)c2ccc3scnc3c2)CCCN1c1cnc(C(N)=O)c(Nc2cnn(C)c2)n1` [Example D-237, N-[(2R,3R)-1-{5-carbamoyl-6-[(1-methyl-1H-pyrazol-4-yl)amino]pyrazin-2-yl}-2-methylpiperidin-3-yl]-1,3-benzothiazole-5-carboxamide]: the IC50 is no more than 10 nM. In the case of `C/C=C/c1ccc(C(=O)N[C@@H]2CCCN(c3cnc(C(N)=O)c(Nc4cc(C)ns4)c3)[C@@H]2C)c(F)c1` [Example D-170, 5-[(2R,3R)-3-{2-fluoro-4-[(1E)-prop-1-en-1-yl]benzamido}-2-methylpiperidin-1-yl]-3-[(3-methyl-1,2-thiazol-5-yl)amino]pyridine-2-carboxamide], the IC50 lay in the range of 10 to 100 nM. The same measure for `C[C@@H]1[C@H](NC(=O)c2ccc(C3(C)COC3)cc2)CCCN1c1cnc(C(N)=O)c(Nc2cnn(C)c2)n1` [Example D-228, 3-[(1-methyl-1H-pyrazol-4-yl)amino]-5-[(2R,3R)-2-methyl-3-[4-(3-methyloxetan-3-yl)benzamido]piperidin-1-yl]pyrazine-2-carboxamide]: no more than 10 nM; for `Cc1nc2cc(C(=O)N[C@@H]3CCCN(c4cnc(C(N)=O)c(Nc5cnn(C)c5)n4)[C@@H]3C)ccc2o1` [Example D-238, N-[(2R,3R)-1-{5-carbamoyl-6-[(1-methyl-1H-pyrazol-4-yl)amino]pyrazin-2-yl}-2-methylpiperidin-3-yl]-2-methyl-1,3-benzoxazole-5-carboxamide]: no more than 10 nM. The value for `Cc1ccc(C(=O)N[C@@H]2CCCN(c3cnc(C(N)=O)c(Nc4cnn(C)c4)n3)[C@@H]2C)cc1` [Example D-232, 3-[(1-methyl-1H-pyrazol-4-yl)amino]-5-[(2R,3R)-2-methyl-3-(4-methylbenzamido)piperidin-1-yl]pyrazine-2-carboxamide] was no more than 10 nM; that for `C[C@@H]1[C@H](NC(=O)c2ccc(C(C)(O)C(F)(F)F)cc2)CCCN1c1cnc(C(N)=O)c(Nc2cnn(C)c2)n1` (single isomer, unassigned) [Example D-214] was no more than 10 nM; that for `C[C@@H]1[C@H](NC(=O)c2ccc(C(C)(C)O)cc2)CCCN1c1cnc(C(N)=O)c(Nc2cnn(C)c2)n1` [Example D-194, 5-[(2R,3R)-3-[4-(2-hydroxypropan-2-yl)benzamido]-2-methylpiperidin-1-yl]-3-[(1-methyl-1H-pyrazol-4-yl)amino]pyrazine-2-carboxamide] was no more than 10 nM.

For the compound `C[C@@H]1[C@H](NC(=O)c2ccc(N(C)C)cc2)CCCN1c1cnc(C(N)=O)c(Nc2ccc(N3CCN(C)CC3)cc2)n1` [Example D-196, 5-[(2R,3R)-3-[4-(dimethylamino)benzamido]-2-methylpiperidin-1-yl]-3-{[4-(4-methylpiperazin-1-yl)phenyl]amino}pyrazine-2-carboxamide], the IC50 is no more than 10 nM. The value for `Cn1cc(Nc2nc(N3C4CCC(NC(=O)c5ccc(C6CC6)cc5)C3CC4)cnc2C(N)=O)cn1` (single isomer, unassigned) [Example D-202, 5-[2-(4-cyclopropylbenzamido)-8-azabicyclo[3.2. I]octan-8-yl]-3-[(1-methyl-1H-pyrazol-4-yl)amino]pyrazine-2-carboxamide] was 10 to 100 nM; that for `Cc1nc2cc(C(=O)N[C@@H]3CCCN(c4cnc(C(N)=O)c(Nc5cnn(C)c5)n4)[C@@H]3C)ccc2s1` [Example D-242, N-[(2R,3R)-1-{5-carbamoyl-6-[(1-methyl-1H-pyrazol-4-yl)amino]pyrazin-2-yl}-2-methylpiperidin-3-yl]-2-methyl-1,3-benzothiazole-5-carboxamide] was no more than 10 nM.

Turning to `CN1CCN(c2ccc(Nc3nc(N4CCC[C@@H](n5ccc6cc(C7CC7)cc(F)c6c5=O)C4)cnc3C(N)=O)cc2)CC1` [Example D-174, 5-[(3R)-3-(6-cyclopropyl-8-fluoro-1-oxo-1,2-dihydroisoquinolin-2-yl)piperidin-1-yl]-3-{[4-(4-methylpiperazin-1-yl)phenyl]amino}pyrazine-2-carboxamide], the IC50 is no more than 10 nM.

As to `C[C@@H]1[C@H](NC(=O)c2ccc(N(C)CCO)cc2)CCCN1c1cnc(C(N)=O)c(Nc2cnn(C)c2)n1` [Example D-217, 5-[(2R,3R)-3-{4-[(2-hydroxyethyl)(methyl)amino]benzamido}-2-methylpiperidin-1-yl]-3-[(1-methyl-1H-pyrazol-4-yl)amino]pyrazine-2-carboxamide], the IC50 was no more than 10 nM. The value for `Cn1cc(Nc2nc(N3CCC[C@@H](NC(=O)c4ccc(C5CC5)cc4)C3)nnc2C(N)=O)cn1` [Example D-195, 3-[(3R)-3-(4-cyclopropylbenzamido)piperidin-1-yl]-5-[(1-methyl-1H-pyrazol-4-yl)amino]-1,2,4-triazine-6-carboxamide] was no more than 10 nM. The value for `Cn1cc(Nc2nc(N3CCC(F)(F)[C@@H](NC(=O)c4ccc(C5CC5)cc4)C3)cnc2C(N)=O)cn1` [Example D-193, 5-[(3S)-3-(4-cyclopropylbenzamido)-4,4-difluoropiperidin-1-yl]-3-[(1-methylpyrazol-4-yl)amino]pyrazine-2-carboxamide] was 10 to 100 nM. The same measure for `C[C@@H]1[C@H](NC(=O)c2ccc(C3(C(F)(F)F)CC3)cc2)CCCN1c1cnc(C(N)=O)c(Nc2cnn(C)c2)n1` [Example D-221, 3-[(1-Methyl-1H-pyrazol-4-yl)amino]-5-[(2R,3R)-2-methyl-3-{4-[1-(trifluoromethyl)cyclopropyl]benzamido}piperidin-1-yl]pyrazine-2-carboxamide]: no more than 10 nM.

The record behind these values is patent publication US20210070748A1, “INHIBITORS OF BRUTONS TYROSINE KINASE” (Pharmacyclics LLC, priority 2015, published 2021).
